Assay results: patent US11319311B2, “Crystalline forms of Actinomycin D for treatment of cancer” (TRANSGENEX NANOBIOTECH, INC., priority 2018, dated 2022)
Like-named read-outs stand apart in the source and are kept apart here.

Tests used:
[1] = Accelerated stability studies (PXRD physical form stability); format: physicochemical; settings: accelerated conditions 75% humidity and 40° C., one year, by PXRD
Method: Stability studies of the DACT novel forms were conducted using accelerated conditions (75% humidity and 40° C.) of which are obvious to the artisan in the field, for more than one year. […] Selected data of the novel complexes of DACT:methylparaben, propylparaben and diphenic acid proves this point.

SK-ES-1 = assay: Monolayer cell culture IC50 (CellTiter-Glo viability), SK-ES-1; format: cell-based, human; settings: Sarcoma, SK-ES-1, monolayer, 72 hours treatment, average of three replications
Method: (§1) Cancer cell lines listed in Table 1 were subjected for testing anti-cancer potency or the half maximal inhibitory concentration (IC50) of the D-Actinomycin (DACT) molecular complexes.
(§2) The SK-ES-1, U-2 OS, and SAOS-2 cells were cultured in a growth medium that is ATCC-formulated McCoy's 5a Medium Modified, Catalog No. 30-2007. The PC-3, PANC-1, SK-Mel-5, A549, H460, and H1299 were cultured in a growth medium that is ATCC-formulated Dulbecco's Modified Eagle's Medium (DMEM), Catalog No. 30-2002. The cells were seeded on 96-well microtiter plates with 3500 cells per well and cultured in an incubator (Model 3120, Thermo Scientific, USA) with a constant temperature at 37° C. and 5% carbon dioxide (CO2) gas for 24 hours.
(§3) The new DACT-molecular complexes were made into a series with concentration of 200 nM to 40 nM, 8 nM, 1.6 nM, 0.32 nM, and 0.064 nM. 100 μl of each solution was then added into each well to bring out the final concentration of the drug treatment at 100 nM, 20 nM, 4 nM, 0.8 nM, 0.16 nM, or 0.032 nM, respectively.
(§4) The treated cells in the 96 well plate was then further cultured at the same conditions for 72 hours and then subjected for a final cell viability measurement. The measurement used a homogeneous method to determine the number of metabolically active cells presented in each of treatments. A testing reagent for the measurement is a mixture solution of the CellTiter-Glo® 2.0 reagent (CTG, Promega Cat #G9243, USA) and growth medium in 1:1 ratio in this respect.
(§5) The 96-well plate with the new molecular complex treated cells was taken out from incubator after the 72 hours of incubation, and the treatment solution in each well was removed using a multichannel pipette, and 100 μl of the testing reagent were added into each well. The plate was then placed on a plate shaker for 15 min. The plate was covered with a piece of aluminum foil to protect the CTG luminescence during the shaking time.
(§6) Then 90 μl of the 100 μl testing reagent were transferred into an opaque-walled 96-well plate for the CTG luminescence reading on a plate reader (SynergyH4 Hybrid Reader, Biotek, USA). The luminescence intensity of each treatment was positively correlated with the number of cells survived during the treatments.
(§7) All the treatment data was normalized by comparing with the control samples that had only growth medium without any molecular complexes. The half maximal inhibitory concentration (IC50) data was calculated using the nonlinear regression model and dose-responses (inhibition) curve built in the software. Each of treatments was performed in three replications each time and repeated three times for validation. The IC50 average […] (Avg) and standard deviation (STDV) were calculated based on the three replications.

PC-3 = assay: Monolayer cell culture IC50 (CellTiter-Glo viability), PC-3; format: cell-based
Method: as §1, §2, §3, §4, §5, §6, §7

SK-Mel-5 = assay: Monolayer cell culture IC50 (CellTiter-Glo viability), SK-Mel-5; format: cell-based
Method: as §1, §2, §3, §4, §5, §6, §7

PANC-1 = assay: Monolayer cell culture IC50 (CellTiter-Glo viability), PANC-1; format: cell-based
Method: as §1, §2, §3, §4, §5, §6, §7

U-2 OS = assay: Monolayer cell culture IC50 (CellTiter-Glo viability), U-2 OS; format: cell-based
Method: as §1, §2, §3, §4, §5, §6, §7

A549 = assay: Monolayer cell culture IC50 (CellTiter-Glo viability), A549; format: cell-based; settings: Homo sapiens, Lung, 72 hours treatment, average of three replications
Method: as §1, §2, §3, §4, §5, §6, §7

H1299 = assay: Monolayer cell culture IC50 (CellTiter-Glo viability), H1299; format: cell-based; settings: Homo sapiens, NCI-H1299, Lung, 72 hours treatment, average of three replications
Method: as §1, §2, §3, §4, §5, §6, §7

[2] = in vivo; cited from earlier work
H460 = assay: Monolayer cell culture IC50 (CellTiter-Glo viability), H460; format: cell-based; settings: Homo sapiens, NCI-H460, Lung, 72 hours treatment, average of three replications
Method: as §1, §2, §3, §4, §5, §6, §7

[3] = in vivo; cited from earlier work; remark: listed apart in the source
[4] = Test I, read-out: IC50 Test (I) Avg
[5] = Test II, read-out: IC50 Test (II) Avg
[6] = Test III, read-out: IC50 Test (III) Avg
[7] = Prostate, PC-3, monolayer, 72 hours treatment, Test I, average of three replications, read-out: IC50 Test (I) Avg
[8] = Prostate, PC-3, monolayer, 72 hours treatment, Test II, average of three replications, read-out: IC50 Test (II) Avg
[9] = Prostate, PC-3, monolayer, 72 hours treatment, Test III, average of three replications, read-out: IC50 Test (III) Avg
[10] = Skin, SK-Mel-5, monolayer, 72 hours treatment, Test I, average of three replications, read-out: IC50 Test (I) Avg
[11] = Skin, SK-Mel-5, monolayer, 72 hours treatment, Test II, average of three replications, read-out: IC50 Test (II) Avg
[12] = Skin, SK-Mel-5, monolayer, 72 hours treatment, Test III, average of three replications, read-out: IC50 Test (III) Avg
[13] = Pancreatic, PANC-1, monolayer, 72 hours treatment, Test I, average of three replications, read-out: IC50 Test (I) Avg
[14] = Pancreatic, PANC-1, monolayer, 72 hours treatment, Test II, average of three replications, read-out: IC50 Test (II) Avg
[15] = Pancreatic, PANC-1, monolayer, 72 hours treatment, Test III, average of three replications, read-out: IC50 Test (III) Avg
[16] = Sarcoma, U-2 OS, monolayer, 72 hours treatment, Test I, average of three replications, read-out: IC50 Test (I) Avg
[17] = Sarcoma, U-2 OS, monolayer, 72 hours treatment, Test II, average of three replications, read-out: IC50 Test (II) Avg
[18] = Sarcoma, U-2 OS, monolayer, 72 hours treatment, Test III, average of three replications, read-out: IC50 Test (III) Avg

## COC(=O)c1ccc(O)cc1.Cc1c2oc3c(C)ccc(C(=O)NC4C(=O)NC(C(C)C)C(=O)N5CCCC5C(=O)N(C)CC(=O)N(C)C(C(C)C)C(=O)OC4C)c3nc-2c(C(=O)NC2C(=O)NC(C(C)C)C(=O)N3CCCC3C(=O)N(C)CC(=O)N(C)C(C(C)C)C(=O)OC2C)c(N)c1=O (centres unmarked) [DACT-methylparaben]
[1]
  physical form stability: stable
SK-ES-1; [4]
  IC50: 0.71 nM
SK-ES-1; [5]
  IC50: 0.51 nM
SK-ES-1; [6]
  IC50: 0.58 nM
PC-3; [7]
  IC50: 7.1 nM
PC-3; [8]
  IC50: 5.53 nM
PC-3; [9]
  IC50: 6.15 nM
SK-Mel-5; [10]
  IC50: 0.36 nM
SK-Mel-5; [11]
  IC50: 0.37 nM
SK-Mel-5; [12]
  IC50: 2.3 nM
PANC-1; [13]
  IC50: 4.15 nM
PANC-1; [14]
  IC50: 2.66 nM
PANC-1; [15]
  IC50: 3.48 nM
U-2 OS; [16]
  IC50: 4.3 nM
U-2 OS; [17]
  IC50: 4.38 nM
U-2 OS; [18]
  IC50: 2.27 nM

## Cc1c2oc3c(C)ccc(C(=O)NC4C(=O)NC(C(C)C)C(=O)N5CCCC5C(=O)N(C)CC(=O)N(C)C(C(C)C)C(=O)OC4C)c3nc-2c(C(=O)NC2C(=O)NC(C(C)C)C(=O)N3CCCC3C(=O)N(C)CC(=O)N(C)C(C(C)C)C(=O)OC2C)c(N)c1=O.O=C(O)c1ccccc1-c1ccccc1C(=O)O (centres unmarked) [DACT-diphenic Acid]
[1]
  physical form stability: stable
PC-3; [7]
  IC50: 6.38 nM
PC-3; [8]
  IC50: 5.89 nM
PC-3; [9]
  IC50: 6.55 nM
SK-Mel-5; [10]
  IC50: 0.42 nM
SK-Mel-5; [11]
  IC50: 0.32 nM
SK-Mel-5; [12]
  IC50: 2.3 nM
PANC-1; [13]
  IC50: 5.31 nM
PANC-1; [14]
  IC50: 3.25 nM
PANC-1; [15]
  IC50: 3.83 nM
U-2 OS; [16]
  IC50: 4.34 nM
U-2 OS; [17]
  IC50: 4.3 nM
U-2 OS; [18]
  IC50: 2.69 nM

## Cc1c2oc3c(C)ccc(C(=O)N[C@@H]4C(=O)N[C@H](C(C)C)C(=O)N5CCC[C@H]5C(=O)N(C)CC(=O)N(C)[C@@H](C(C)C)C(=O)O[C@@H]4C)c3nc-2c(C(=O)N[C@@H]2C(=O)N[C@H](C(C)C)C(=O)N3CCC[C@H]3C(=O)N(C)CC(=O)N(C)[C@@H](C(C)C)C(=O)O[C@@H]2C)c(N)c1=O [DACT, reference compound]
A549; [4]
  IC50: 1.64 nM
A549; [5]
  IC50: 1.85 nM
A549; [6]
  IC50: 1.64 nM
H1299; [4]
  IC50: 1.78 nM
H1299; [5]
  IC50: 1.15 nM
H1299; [6]
  IC50: 1.28 nM
[2]
  absorption from the GI tract: poorly absorbed
SK-ES-1; Homo sapiens, SK-ES1, Test I, read-out: IC50 Test (I) Avg
  IC50: 1.03 nM
SK-ES-1; Homo sapiens, SK-ES1, Test II, read-out: IC50 Test (II) Avg
  IC50: 0.56 nM
SK-ES-1; Homo sapiens, SK-ES1, Test III, read-out: IC50 Test (III) Avg
  IC50: 0.63 nM
PC-3; Homo sapiens, PC-3, 72 h, read-out: IC50 Test (I) Avg (nM)
  IC50: 8.81 nM
PC-3; Homo sapiens, PC-3, 72 h, read-out: IC50 Test (II) Avg (nM)
  IC50: 7 nM
PC-3; Homo sapiens, PC-3, 72 h, read-out: IC50 Test (III) Avg (nM)
  IC50: 7.28 nM
H460; [4]
  IC50: 0.35 nM
H460; [5]
  IC50: 0.35 nM
H460; [6]
  IC50: 0.35 nM
[3]
  irritation to tissues: extremely irritating to tissues
SK-Mel-5; Homo sapiens, SK-MEL-5, 72 h, read-out: IC50 Test (I) Avg (nM)
  IC50: 0.61 nM
SK-Mel-5; Homo sapiens, SK-MEL-5, 72 h, read-out: IC50 Test (II) Avg (nM)
  IC50: 0.5 nM
SK-Mel-5; Homo sapiens, SK-MEL-5, 72 h, read-out: IC50 Test (III) Avg (nM)
  IC50: 2.9 nM
PANC-1; Homo sapiens, PANC-1, 72 h, read-out: IC50 Test (I) Avg (nM)
  IC50: 5.68 nM
PANC-1; Homo sapiens, PANC-1, 72 h, read-out: IC50 Test (II) Avg (nM)
  IC50: 4.56 nM
PANC-1; Homo sapiens, PANC-1, 72 h, read-out: IC50 Test (III) Avg (nM)
  IC50: 4.74 nM
U-2 OS; Homo sapiens, U2OS, 72 h, read-out: IC50 Test (I) Avg (nM)
  IC50: 5.29 nM
U-2 OS; Homo sapiens, U2OS, 72 h, read-out: IC50 Test (II) Avg (nM)
  IC50: 5.63 nM
U-2 OS; Homo sapiens, U2OS, 72 h, read-out: IC50 Test (III) Avg (nM)
  IC50: 2.62 nM

## Cc1c2oc3c(C)ccc(C(=O)NC4C(=O)NC(C(C)C)C(=O)N5CCCC5C(=O)N(C)CC(=O)N(C)C(C(C)C)C(=O)OC4C)c3nc-2c(C(=O)NC2C(=O)NC(C(C)C)C(=O)N3CCCC3C(=O)N(C)CC(=O)N(C)C(C(C)C)C(=O)OC2C)c(N)c1=O.NC(CS)C(=O)O (racemic) [DACT:DL-cysteine]
[1]
  physical form stability: shown physical stability
